From patent publication US20240173307A1, “MODULATORS OF THE INTEGRATED STRESS PATHWAY” (Calico Life Sciences LLC, priority 2017, published 2024) come the findings set out here.

For this test, the system named is HEK293T cells carrying the ATF4 luciferase reporter. As to the kind of experiment: ATF4-Luc assay (in vitro model of vanishing white matter disease). The format is cell-based. Conditions: Homo sapiens, HEK-293T, 1 μg/mL tunicamycin, 7 hours. The essentials: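 Stable HEK293T line expressing firefly luciferase behind the human full-length ATF4 5′-UTR, grown in DMEM/10% FBS. Cells were co-treated with 1 μg/mL tunicamycin and 200 nM compound for 7 h. Luciferase luminescence was read as the output, and EC50 values were derived from it.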

Some results are limits rather than exact numbers.

As for `O=C(COc1ccc(Cl)c(F)c1)NC12CCC(C(=O)NCc3nc4cc(F)c(F)cc4[nH]3)(CC1)CC2` [Compound 324, 4-[2-(4-chloro-3-fluorophenoxy)acetamido]-N-[(5,6-difluoro-1H-benzimidazol-2-yl)methyl]bicyclo[2.2.2]octane-1-carboxamide], the EC50 (in general, the concentration giving half of the maximal effect) is less than 250 nM.
On to `O=C(COc1ccc(Cl)c(F)c1)NC12CCC(C(=O)NCc3nc4ccc(Cl)cc4[nH]3)(CC1)CC2` [Compound 325, N-[(6-chloro-1H-benzimidazol-2-yl)methyl]-4-[2-(4-chloro-3-fluorophenoxy)acetamido]bicyclo[2.2.2]octane-1-carboxamide], for which the EC50 was less than 250 nM.
`O=C(COc1ccc(Cl)c(F)c1)NC12CCC(C(=O)NCC(=O)c3ccc(Cl)c(F)c3)(CC1)[C@@H](O)C2` [Compound 326, (2S)-4-[2-(4-chloro-3-fluorophenoxy)acetamido]-N-[2-(4-chloro-3-fluorophenyl)-2-oxoethyl]-2-hydroxybicyclo[2.2.2]octane-1-carboxamide]: the EC50 is less than 250 nM.
Take `O=C(COc1ccc(Cl)c(F)c1)NC12CCC(C(=O)NCc3nc4ccccc4[nH]3)(CC1)CC2` [Compound 327, N-[(1H-benzimidazol-2-yl)methyl]-4-[2-(4-chloro-3-fluorophenoxy)acetamido]bicyclo[2.2.2]octane-1-carboxamide]: the EC50 was less than 250 nM.
With `O=C(O)Cn1c(CNC(=O)C23CC(NC(=O)COc4ccc(Cl)c(F)c4)(C2)C3)nc2cc(F)c(F)cc21` [Compound 328, {2-[({3-[2-(4-chloro-3-fluorophenoxy)acetamido]bicyclo[1.1.1]pentane-1-carbonyl}amino)methyl]-5,6-difluoro-1H-benzimidazol-1-yl}acetic acid], the EC50 is 1000 to 2000 nM.
The figure for `O=C(COc1ccc(Cl)c(F)c1)NC12CCC(C(=O)NCc3ccc(C(F)(F)F)cn3)(CC1)C(=O)N2CCO` [Compound 329, 1-[2-(4-chloro-3-fluorophenoxy)acetamido]-2-(2-hydroxyethyl)-3-oxo-N-{[5-(trifluoromethyl)pyridin-2-yl]methyl}-2-azabicyclo[2.2.2]octane-4-carboxamide] is less than 250 nM; for `CC(NC(=O)C12CC(NC(=O)COc3ccc(Cl)c(F)c3)(C1)C2)c1cc2cc(Cl)ccc2o1` (stereo not drawn) [Compound 330, N-[1-(5-chloro-1-benzofuran-2-yl)ethyl]-3-[2-(4-chloro-3-fluorophenoxy)acetamido]bicyclo[1.1.1]pentane-1-carboxamide] it is 1000 to 2000 nM; for `O=C(COc1ccc(Cl)c(F)c1)NC12CC(C(=O)NCc3nc4cc(F)c(F)cc4[nH]3)(C1)C2` [Compound 331, 3-[2-(4-chloro-3-fluorophenoxy)acetamido]-N-[(5,6-difluoro-1H-benzimidazol-2-yl)methyl]bicyclo[1.1.1]pentane-1-carboxamide] it is less than 250 nM.
As to `O=C(COc1ccc(Cl)c(F)c1)NC12CCC(C(=O)NCc3cc(C(F)(F)F)ccn3)(CC1)CC2` [Compound 332, 4-[2-(4-chloro-3-fluorophenoxy)acetamido]-N-{[4-(trifluoromethyl)pyridin-2-yl]methyl}bicyclo[2.2.2]octane-1-carboxamide], the EC50 was less than 250 nM.
With `O=C(COc1ccc(Cl)c(F)c1)NC12CCC(C(=O)NCc3ccc(C(F)(F)F)cn3)(CC1)C(=O)N2` [Compound 333, 1-[2-(4-chloro-3-fluorophenoxy)acetamido]-3-oxo-N-{[5-(trifluoromethyl)pyridin-2-yl]methyl}-2-azabicyclo[2.2.2]octane-4-carboxamide], the EC50 is less than 250 nM.
In the case of `O=C(COc1ccc(Cl)c(F)c1)NC12CCC(C(=O)NCc3ccc(Cl)c(F)c3)(CC1)OC2` [Compound 334, 4-[2-(4-chloro-3-fluorophenoxy)acetamido]-N-[(4-chloro-3-fluorophenyl)methyl]-2-oxabicyclo[2.2.2]octane-1-carboxamide], the EC50 fell in the range of 250 to 500 nM.
Consider `O=C(COc1ccc(Cl)c(F)c1)NC12CCC(C(=O)NCc3ccc(C(F)(F)F)cn3)(CC1)OC2` [Compound 335, 4-[2-(4-chloro-3-fluorophenoxy)acetamido]-N-{[5-(trifluoromethyl)pyridin-2-yl]methyl}-2-oxabicyclo[2.2.2]octane-1-carboxamide], for which the EC50 is less than 250 nM.
As to `O=C(COc1ccc(Cl)c(F)c1)NC12CCC(C(=O)Nc3ccc(OC(F)(F)F)cc3)(CC1)OC2` [Compound 336, 4-[2-(4-chloro-3-fluorophenoxy)acetamido]-N-[4-(trifluoromethoxy)phenyl]-2-oxabicyclo[2.2.2]octane-1-carboxamide], the EC50 is less than 250 nM.
As for `O=C(COc1ccc(Cl)c(F)c1)NC12CCC(C(=O)Nc3ccc(C(F)(F)F)cc3)(CC1)OC2` [Compound 337, 4-[2-(4-chloro-3-fluorophenoxy)acetamido]-N-[4-(trifluoromethyl)phenyl]-2-oxabicyclo[2.2.2]octane-1-carboxamide], the figure is less than 250 nM; as for `O=C(COc1ccc(Cl)c(F)c1)NC12CCC(C(=O)Nc3ccc(Cl)c(F)c3)(CC1)OC2` [Compound 338, 4-[2-(4-chloro-3-fluorophenoxy)acetamido]-N-(4-chloro-3-fluorophenyl)-2-oxabicyclo[2.2.2]octane-1-carboxamide], less than 250 nM; as for `NC(=O)c1ccc(CNC(=O)C23CC(NC(=O)COc4ccc(Cl)c(F)c4)(C2)C3)nc1` [Compound 339, 6-[({3-[2-(4-chloro-3-fluorophenoxy)acetamido]bicyclo[1.1.1]pentane-1-carbonyl}amino)methyl]pyridine-3-carboxamide], greater than 2000 nM.
In the case of `O=C(COc1ccc(Cl)c(F)c1)NC12CC(C(=O)NCCOc3ccc(Cl)c(F)c3)(C1)C2` [Compound 340, 3-[2-(4-chloro-3-fluorophenoxy)acetamido]-N-[2-(4-chloro-3-fluorophenoxy)ethyl]bicyclo[1.1.1]pentane-1-carboxamide], the 50% effective concentration (EC50) is less than 250 nM.
The figure for `O=C(COc1ccc(Cl)c(F)c1)NC12CCC(C(=O)Nc3ccc(OC(F)(F)F)nc3)(CC1)OC2` [Compound 341, 4-[2-(4-chloro-3-fluorophenoxy)acetamido]-N-[6-(trifluoromethoxy)pyridin-3-yl]-2-oxabicyclo[2.2.2]octane-1-carboxamide] is less than 250 nM; for `O=C(COc1ccc(Cl)c(F)c1)NC12CCC(C(=O)NCc3ccc(Cl)cn3)(CC1)OC2` [Compound 342, 4-[2-(4-chloro-3-fluorophenoxy)acetamido]-N-[(5-chloropyridin-2-yl)methyl]-2-oxabicyclo[2.2.2]octane-1-carboxamide] it is less than 250 nM; for `O=C(COc1ccc(Cl)c(F)c1)NC12CC(C(=O)N(CCO)Cc3ccc(Cl)c(F)c3)(C1)C2` [Compound 343, 3-[2-(4-chloro-3-fluorophenoxy)acetamido]-N-[(4-chloro-3-fluorophenyl)methyl]-N-(2-hydroxyethyl)bicyclo[1.1.1]pentane-1-carboxamide] it is 1000 to 2000 nM.
For `O=C(COc1ccc(Cl)c(F)c1)NC12CCC(C(=O)N(CCO)Cc3ccc(Cl)c(F)c3)(CC1)CC2` [Compound 344, 4-[2-(4-chloro-3-fluorophenoxy)acetamido]-N-[(4-chloro-3-fluorophenyl)methyl]-N-(2-hydroxyethyl)bicyclo[2.2.2]octane-1-carboxamide], the EC50 was 1000 to 2000 nM.
Consider `O=C(COc1ccc(Cl)c(F)c1)NC12CC(C(=O)NCc3ccc(C(F)F)cn3)(C1)C2` [Compound 345, 3-[2-(4-chloro-3-fluorophenoxy)acetamido]-N-{[5-(difluoromethyl)pyridin-2-yl]methyl}bicyclo[1.1.1]pentane-1-carboxamide], for which the EC50 was in the range of 250 to 500 nM.
On to `O=C(COc1ccc(Cl)c(F)c1)NC12CCC(C(=O)NCc3ccc(C(F)F)cn3)(CC1)CC2` [Compound 346, 4-[2-(4-chloro-3-fluorophenoxy)acetamido]-N-{[5-(difluoromethyl)pyridin-2-yl]methyl}bicyclo[2.2.2]octane-1-carboxamide], for which the EC50 was less than 250 nM.
In the case of `O=C(COc1ccc(Cl)c(F)c1)NC12CCC(C(=O)NCC(=O)c3ccc(Cl)c(F)c3)(CC1)[C@H](O)C2` [Compound 347, (2R)-4-[2-(4-chloro-3-fluorophenoxy)acetamido]-N-[2-(4-chloro-3-fluorophenyl)-2-oxoethyl]-2-hydroxybicyclo[2.2.2]octane-1-carboxamide], the EC50 was less than 250 nM.
